Here are results for eight molecules from PubChem BioAssay (NCI).

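Cultured in 96-well plates, cells were exposed to test compound for 48 hours across five concentrations. GI50 is the concentration that inhibits growth by half. TGI: concentration producing complete growth inhibition.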

Among the test systems are NCI/ADR-RES ovarian; NCI-H23 lung; SNB-75 CNS; CAKI-1 renal; SK-MEL-5 melanoma; SF-268 CNS; UACC-62 melanoma; TK-10 renal; SK-OV-3 ovarian; OVCAR-8 ovarian.
Common to all, as to assay: NCI tumour cell line growth inhibition, 48 h

In the case of `C/C(=C\c1csc(C)n1)[C@@H]1C[C@@H]2O[C@]2(C)CCC[C@H](C)[C@H](O)[C@@H](C)C(=O)C(C)(C)[C@@H](O)CC(=O)N1`, the GI50 was 0.000206 µM in the assay with NCI/ADR-RES ovarian; 0.00019 µM with NCI-H23 lung; 0.00161 µM with SNB-75 CNS; 0.0137 µM in the assay with CAKI-1 renal; 0.000137 µM in the assay with SK-MEL-5 melanoma; 0.000215 µM with SF-268 CNS. For the same molecule, the GI50 was 0.000171 µM in the assay with UACC-62 melanoma, 0.00534 µM with TK-10 renal, 0.00477 µM in the assay on SK-OV-3 ovarian and 0.000112 µM with OVCAR-8 ovarian. For the same molecule, the TGI with NCI/ADR-RES ovarian amounted to 0.000412 µM; in the assay on NCI-H23 lung, 0.000412 µM; in the assay on SNB-75 CNS, 0.048 µM; in the assay with CAKI-1 renal, 0.0434 µM; with SK-MEL-5 melanoma, 0.000337 µM; in the assay on SF-268 CNS, 0.000446 µM. Moreover, the TGI in the assay with UACC-62 melanoma was 0.000412 µM; with TK-10 renal it was 0.0411 µM; with SK-OV-3 ovarian, 0.0595 µM; in the assay on OVCAR-8 ovarian, 0.000184 µM.

`CN(C)CCCC1(c2ccc(F)cc2)OCc2cc(-c3csc4ccccc34)ccc21` (stereo not drawn): the GI50 is 1.59 µM with NCI/ADR-RES ovarian; 1.55 µM in the assay on NCI-H23 lung; 1.35 µM in the assay on SNB-75 CNS; 1.62 µM in the assay with CAKI-1 renal; 1.77 µM in the assay with SK-MEL-5 melanoma; 1.64 µM in the assay on SF-268 CNS. Further, the GI50 with UACC-62 melanoma is 1.69 µM; in the assay on TK-10 renal, 1.6 µM; in the assay with SK-OV-3 ovarian, 1.61 µM; in the assay on OVCAR-8 ovarian it was 1.87 µM. The TGI was 3.07 µM in the assay with NCI/ADR-RES ovarian; 3.02 µM in the assay on NCI-H23 lung; 2.8 µM in the assay on SNB-75 CNS; 3.05 µM in the assay with CAKI-1 renal; 3.17 µM in the assay with SK-MEL-5 melanoma; 3.19 µM in the assay on SF-268 CNS. Moreover, the TGI was 3.13 µM in the assay with UACC-62 melanoma, 3.16 µM with TK-10 renal, 3.12 µM in the assay on SK-OV-3 ovarian and 3.84 µM in the assay on OVCAR-8 ovarian.

For the molecule `COc1cc(/C=C/C(=O)c2nc3cc(F)ccc3nc2C)cc(OC)c1OC`, the GI50 was 14.2 µM in the assay with NCI/ADR-RES ovarian; > 47.9 µM with NCI-H23 lung; 9.3 µM in the assay with SNB-75 CNS; 7.42 µM in the assay with CAKI-1 renal; 5.04 µM in the assay on SK-MEL-5 melanoma; 7.01 µM with SF-268 CNS. In addition, the GI50 in the assay with UACC-62 melanoma was 5.57 µM; with TK-10 renal it was > 100 µM; with SK-OV-3 ovarian it was > 100 µM; with OVCAR-8 ovarian it was 5.38 µM. For the same molecule, the TGI in the assay on NCI/ADR-RES ovarian was > 91.1 µM; with NCI-H23 lung, > 100 µM; in the assay on SNB-75 CNS, > 100 µM; with CAKI-1 renal, > 100 µM; with SK-MEL-5 melanoma, > 100 µM; in the assay on SF-268 CNS, > 100 µM. Also, the TGI in the assay with UACC-62 melanoma, with TK-10 renal, with SK-OV-3 ovarian and with OVCAR-8 ovarian was > 100 µM each time.

As to `COc1cc(NC(=O)COc2ccccc2)c(C(N)=O)cc1OC`, the GI50 with NCI/ADR-RES ovarian was 0.487 µM; in the assay with NCI-H23 lung it was 1.32 µM; in the assay on SNB-75 CNS it was 0.547 µM; in the assay with CAKI-1 renal, 3.8 µM; with SK-MEL-5 melanoma, 0.766 µM; with SF-268 CNS, 6.77 µM. The GI50 was 2.52 µM in the assay on UACC-62 melanoma, 14.4 µM with TK-10 renal, 3.58 µM in the assay with SK-OV-3 ovarian and 3.01 µM with OVCAR-8 ovarian. For the same molecule, the TGI in the assay on NCI/ADR-RES ovarian was 11.7 µM; with NCI-H23 lung it was 20.4 µM; in the assay on SNB-75 CNS, 11.9 µM; with CAKI-1 renal it was > 100 µM; with SK-MEL-5 melanoma, > 100 µM; with SF-268 CNS, 45.7 µM. For the same molecule, the TGI in the assay with UACC-62 melanoma is > 100 µM; in the assay on TK-10 renal, > 100 µM; with SK-OV-3 ovarian, 22.7 µM; in the assay on OVCAR-8 ovarian it was > 100 µM.

Take `CCN1CCN(CC(=O)Nc2nc3ccc(NCc4ccc(Br)cc4)cc3s2)CC1`: the GI50 with NCI/ADR-RES ovarian is 3.3 µM; in the assay with NCI-H23 lung, 3.22 µM; in the assay on SNB-75 CNS it was 1.59 µM; in the assay on CAKI-1 renal it was 1.84 µM; with SK-MEL-5 melanoma, 1.68 µM; in the assay with UACC-62 melanoma it was 1.9 µM. Also, the GI50 with TK-10 renal is 2.24 µM; in the assay with OVCAR-8 ovarian, 3.25 µM. Further, the TGI in the assay with NCI/ADR-RES ovarian was > 100 µM; in the assay with NCI-H23 lung, > 100 µM; in the assay on SNB-75 CNS, 3.29 µM; in the assay with CAKI-1 renal it was 4.55 µM; with SK-MEL-5 melanoma, 3.08 µM; in the assay on UACC-62 melanoma, 3.52 µM. Besides, the TGI in the assay on TK-10 renal is 4.55 µM; in the assay on OVCAR-8 ovarian, > 100 µM.

Regarding `NS(=O)(=O)c1cc2c(cc1Cl)NCNS2(=O)=O`, the TGI in the assay on NCI/ADR-RES ovarian, in the assay on NCI-H23 lung, in the assay with SNB-75 CNS, with CAKI-1 renal, in the assay with SK-MEL-5 melanoma and with SF-268 CNS was > 100 µM each time. For the same molecule, the TGI in the assay with TK-10 renal and with OVCAR-8 ovarian was > 100 µM each time.

Take `N#CC1=C(N)Oc2c(ccc3ccccc23)C1c1cc2ccccc2n2nnnc12` (stereo not drawn): the GI50 with NCI/ADR-RES ovarian is 0.534 µM; in the assay on NCI-H23 lung, 3.45 µM; with CAKI-1 renal, 5.74 µM; with SK-MEL-5 melanoma, 0.611 µM; in the assay with SF-268 CNS it was 3.23 µM; in the assay on UACC-62 melanoma it was 0.451 µM. The GI50 in the assay on TK-10 renal was 4.8 µM; in the assay on SK-OV-3 ovarian it was 2.05 µM; in the assay on OVCAR-8 ovarian, 2.85 µM. The TGI in the assay with NCI/ADR-RES ovarian is 46.6 µM; in the assay on NCI-H23 lung, > 100 µM; with CAKI-1 renal, > 100 µM; with SK-MEL-5 melanoma, > 100 µM; in the assay on SF-268 CNS, > 100 µM; in the assay with UACC-62 melanoma, > 100 µM. Also, the TGI in the assay on TK-10 renal, in the assay with SK-OV-3 ovarian and in the assay on OVCAR-8 ovarian was > 100 µM throughout.

Turning to `CN(C)[C@@H]1C(=O)C(C(=O)NCc2nc3[nH]cnc(=S)c3[nH]2)=C(O)[C@@]2(O)C(=O)C3=C(O)c4c(O)cccc4[C@@](C)(O)[C@H]3C[C@@H]12`, the GI50 with NCI/ADR-RES ovarian was 6.13 µM; in the assay with NCI-H23 lung, 8.85 µM; in the assay with SNB-75 CNS it was 1.79 µM; with CAKI-1 renal, 3 µM; in the assay on SK-MEL-5 melanoma it was 24.8 µM; with UACC-62 melanoma, 2.91 µM. Also, the GI50 with SK-OV-3 ovarian is 2 µM; in the assay on OVCAR-8 ovarian, 6.78 µM. Besides, the TGI in the assay on NCI/ADR-RES ovarian, in the assay on NCI-H23 lung, with SNB-75 CNS, in the assay on CAKI-1 renal, in the assay with SK-MEL-5 melanoma and in the assay with UACC-62 melanoma was > 100 µM each time. Also, the TGI in the assay on SK-OV-3 ovarian and in the assay on OVCAR-8 ovarian was > 100 µM each time.
